Assay results: PubChem BioAssay AID248 (DTP/NCI, 2004)
Several values for one entry are separate records, joined by “and”; a condition that tells them apart may be missing. Identical values can stand only once. Inconclusive results and toxic doses are left out. No stated cut-off is given here; in the data, active means T/C of 150% or more; inactive means T/C below 125%.

Tested on: L1210 leukemia ip in BDF1 mice, survival T/C
Assay: NCI In Vivo Anticancer Drug Screen. Data for tumor model L1210 Leukemia (intraperitoneal) in B6D2F1 (BDF1) mice
Details: endpoint: mean survival time, higher = longer survival
Procedure, shortened: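 Read-out is survival time, reported as the treated-group measurement over the vehicle-control measurement.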

[1] = dose: 100.0 mg/kg/injection, schedule: Q04DX002 (ip), vehicle: saline with Tween-80
[2] = dose: 200.0 mg/kg/injection, schedule: Q04DX002 (ip), vehicle: saline with Tween-80
[3] = dose: 100.0 mg/kg/injection, schedule: Q04DX003 (ip), vehicle: Klucel (hydroxypropylcellulose) (HPC)
[4] = dose: 200.0 mg/kg/injection, schedule: Q04DX003 (ip), vehicle: Klucel (hydroxypropylcellulose) (HPC)
[5] = dose: 100.0 mg/kg/injection, schedule: Q01DX009 (ip), vehicle: saline with Tween-80
[6] = dose: 100.0 mg/kg/injection, schedule: Q04DX003 (ip), vehicle: saline with Tween-80
[7] = dose: 200.0 mg/kg/injection, schedule: Q01DX009 (ip), vehicle: saline with Tween-80
[8] = dose: 200.0 mg/kg/injection, schedule: Q04DX003 (ip), vehicle: saline with Tween-80
[9] = dose: 400.0 mg/kg/injection, schedule: Q04DX003 (ip), vehicle: saline with Tween-80
[10] = dose: 100.0 mg/kg/injection, schedule: Q01DX001 (ip), vehicle: carboxymethylcellulose (CMC)
[11] = dose: 200.0 mg/kg/injection, schedule: Q01DX001 (ip), vehicle: carboxymethylcellulose (CMC)
[12] = dose: 400.0 mg/kg/injection, schedule: Q01DX001 (ip), vehicle: carboxymethylcellulose (CMC)
[13] = dose: 400.0 mg/kg/injection, schedule: Q04DX002 (ip), vehicle: saline with Tween-80
[14] = dose: 50.0 mg/kg/injection, schedule: Q01DX009 (ip), vehicle: saline
[15] = dose: 50.0 mg/kg/injection, schedule: Q01DX001 (ip), vehicle: saline
[16] = dose: 100.0 mg/kg/injection, schedule: Q01DX001 (ip), vehicle: saline
[17] = dose: 200.0 mg/kg/injection, schedule: Q01DX001 (ip), vehicle: saline
[18] = dose: 50.0 mg/kg/injection, schedule: Q04DX003 (ip), vehicle: Klucel (hydroxypropylcellulose) (HPC)

Measured: T/C

OC1CC23C(O)CCCC12C1C=CC3C1 (stereo not given)
inactive: dose: 25.0 mg/kg/injection, schedule: Q04DX002 (ip), vehicle: saline with Tween-80 95 % of control | dose: 50.0 mg/kg/injection, schedule: Q04DX002 (ip), vehicle: saline with Tween-80 98 % of control | [1] 98 % of control | [2] 98 % of control

O[O][Ge]([c]1ccccc1)([c]1ccccc1)[c]1ccccc1
inactive: [3] 88 % of control | [4] 91 % of control | dose: 400.0 mg/kg/injection, schedule: Q04DX003 (ip), vehicle: Klucel (hydroxypropylcellulose) (HPC) 88 % of control

CCOc1c(N2CCOCC2)c(=O)c1=O
inactive: [5] 103 % of control | [6] 93 % of control | [7] 97 % of control | [8] 101 % of control | dose: 400.0 mg/kg/injection, schedule: Q01DX009 (ip), vehicle: saline with Tween-80 91 % of control | [9] 93 % of control

C=Cc1nc2ccccc2[nH]1 (tested in a mixture with another compound)
inactive: dose: 5.0 mg/kg/injection, schedule: Q01DX001 (ip), vehicle: saline 95 % of control | dose: 10.0 mg/kg/injection, schedule: Q01DX001 (ip), vehicle: saline 96 % of control | dose: 20.0 mg/kg/injection, schedule: Q01DX001 (ip), vehicle: saline 96 % of control | dose: 80.0 mg/kg/injection, schedule: Q01DX001 (ip), vehicle: saline 102 % of control

O=C(O)c1ccc(Cl)nc1
inactive: dose: 50.0 mg/kg/injection, schedule: Q01DX001 (ip), vehicle: carboxymethylcellulose (CMC) 97 % of control | [10] 94 % of control | [6] 104 % of control | [11] 92 % of control | [8] 103 % of control | [12] 94 % of control | [9] 104 % of control

CSc1ccc(OC(=O)Nc2cccc(Cl)c2)cc1
inactive: [1] 100 % of control | [2] 93 % of control | [13] 104 % of control

O=C1c2ccccc2C(=O)N1CCC[P+](c1ccccc1)(c1ccccc1)c1ccccc1
inactive: dose: 6.25 mg/kg/injection, schedule: Q01DX009 (ip), vehicle: saline with Tween-80 106 % of control | dose: 12.5 mg/kg/injection, schedule: Q01DX009 (ip), vehicle: saline with Tween-80 111 % of control | dose: 25.0 mg/kg/injection, schedule: Q01DX009 (ip), vehicle: saline with Tween-80 116 % of control and 120 % of control

O=N[C@@H]1CCC[C@H](Cl)C1
inactive: [6] 95 % of control | [8] 98 % of control | [9] 95 % of control

CCN(CC)CCCC(C)Nc1ccc(NC(C)CCCN(CC)CC)c2c1C(=O)c1ccccc1C2=O (stereo not given)
inactive: dose: 25.0 mg/kg/injection, schedule: Q01DX009 (ip), vehicle: saline 96 % of control | dose: 25.0 mg/kg/injection, schedule: Q04DX002 (ip), vehicle: saline 92 % of control | [14] 89 % of control | dose: 50.0 mg/kg/injection, schedule: Q04DX002 (ip), vehicle: saline 103 % of control | dose: 100.0 mg/kg/injection, schedule: Q04DX002 (ip), vehicle: saline 96 % of control and 98 % of control

N=c1cc(-c2ccc(Cl)cc2)ss1
inactive: [14] 91 % of control | dose: 100.0 mg/kg/injection, schedule: Q01DX009 (ip), vehicle: saline 97 % of control | dose: 100.0 mg/kg/injection, schedule: Q04DX003 (ip), vehicle: saline 100 % of control | dose: 200.0 mg/kg/injection, schedule: Q01DX009 (ip), vehicle: saline 91 % of control | dose: 200.0 mg/kg/injection, schedule: Q04DX003 (ip), vehicle: saline 92 % of control

CCCCCCCCCCC(OO)C(=O)OC(C)(C)C (stereo not given)
inactive: dose: 100.0 mg/kg/injection, schedule: Q04DX002 (ip), vehicle: Klucel (hydroxypropylcellulose) (HPC) 95 % of control | dose: 200.0 mg/kg/injection, schedule: Q04DX002 (ip), vehicle: Klucel (hydroxypropylcellulose) (HPC) 91 % of control | dose: 400.0 mg/kg/injection, schedule: Q04DX002 (ip), vehicle: Klucel (hydroxypropylcellulose) (HPC) 91 % of control

COc1ccc2nc3cc(Cl)ccc3c(Nc3ccc(O)cc3)c2c1
inactive: [5] 91 % of control | [7] 86 % of control

CC(=O)Oc1ccc2ncccc2c1Cc1c(OC(C)=O)ccc2ncccc12
inactive: dose: 75.0 mg/kg/injection, schedule: Q04DX003 (ip), vehicle: saline 91 % of control | dose: 150.0 mg/kg/injection, schedule: Q04DX003 (ip), vehicle: saline 95 % of control | dose: 300.0 mg/kg/injection, schedule: Q04DX003 (ip), vehicle: saline 95 % of control

C[N+](C)(C)c1ncnc2c1ncn2C1CC(O)C(CO)O1 (stereo not given)
inactive: [15] 104 % of control | [16] 96 % of control | [17] 102 % of control

O=C1c2ccccc2-c2cc(Br)c(NC(Cl)Cl)cc21
inactive: [6] 94 % of control | [8] 93 % of control | [9] 94 % of control

CCCCCNCCO
inactive: dose: 75.0 mg/kg/injection, schedule: Q01DX001 (ip), vehicle: saline 105 % of control | dose: 150.0 mg/kg/injection, schedule: Q01DX001 (ip), vehicle: saline 105 % of control | dose: 300.0 mg/kg/injection, schedule: Q01DX001 (ip), vehicle: saline 109 % of control

COc1ccccc1NC(=O)NNC(=O)CCCC(=O)NNC(=O)Nc1ccccc1OC
inactive: [15] 100 % of control | [16] 97 % of control | [17] 103 % of control | dose: 400.0 mg/kg/injection, schedule: Q01DX001 (ip), vehicle: saline 97 % of control

CCOC(=O)C(CC)C1=CCCCC1 (stereo not given)
inactive: [5] 97 % of control | [6] 91 % of control | [7] 103 % of control | [8] 99 % of control | [9] 91 % of control

CCOC(=O)C1C=CCCC1 (stereo not given)
inactive: [6] 91 % of control | [8] 102 % of control | [9] 94 % of control

CCSC1C(O)C(C(O)CO)OC1n1cnc2c(N)ncnc21 (stereo not given)
inactive: dose: 100.0 mg/kg/injection, schedule: Q01DX005 (ip), vehicle: saline 98 % of control and 105 % of control and 102 % of control | dose: 200.0 mg/kg/injection, schedule: Q01DX005 (ip), vehicle: saline 98 % of control and 100 % of control and 96 % of control | dose: 400.0 mg/kg/injection, schedule: Q01DX005 (ip), vehicle: saline 104 % of control

O=C(N/N=C\c1ccc(Cl)c(Cl)c1)N/N=C/c1ccc(Cl)c(Cl)c1
inactive: [18] 92 % of control | [3] 87 % of control | [4] 92 % of control

O=P(Nc1ccccc1)(N1CCCCC1)N1CCCCC1
inactive: [1] 101 % of control | [2] 101 % of control | [13] 108 % of control

CN(C)CC1C2C=CC(C3CC23)C1CN(C)C (stereo not given)
inactive: dose: 25.0 mg/kg/injection, schedule: Q01DX009 (ip), vehicle: Klucel (hydroxypropylcellulose) (HPC) 113 % of control | dose: 25.0 mg/kg/injection, schedule: Q04DX003 (ip), vehicle: Klucel (hydroxypropylcellulose) (HPC) 94 % of control | dose: 50.0 mg/kg/injection, schedule: Q01DX009 (ip), vehicle: Klucel (hydroxypropylcellulose) (HPC) 107 % of control | [18] 102 % of control | dose: 100.0 mg/kg/injection, schedule: Q01DX009 (ip), vehicle: Klucel (hydroxypropylcellulose) (HPC) 108 % of control | [3] 94 % of control and 92 % of control | [4] 89 % of control

COc1ccc(CCNC(=O)C2CCN(CCc3ccc(OC)c(OC)c3)CC2)cc1OC
inactive: [10] 102 % of control | [11] 96 % of control | [12] 89 % of control

Cc1cccc(C)c1N=Nc1sc(N)nc1C
inactive: dose: 75.0 mg/kg/injection, schedule: Q01DX001 (ip), vehicle: acetone 114 % of control | dose: 150.0 mg/kg/injection, schedule: Q01DX001 (ip), vehicle: acetone 94 % of control | dose: 300.0 mg/kg/injection, schedule: Q01DX001 (ip), vehicle: acetone 110 % of control

CCOC(=O)CCCc1ccc(N=NN(C)C(C)CC)cc1 (stereo not given)
inactive: [10] 111 % of control | [11] 102 % of control | [12] 107 % of control

C=CCCC(=O)O
inactive: dose: 50.0 mg/kg/injection, schedule: Q01DX001 (ip), vehicle: saline with Tween-80 96 % of control | dose: 100.0 mg/kg/injection, schedule: Q01DX001 (ip), vehicle: saline with Tween-80 100 % of control | dose: 200.0 mg/kg/injection, schedule: Q01DX001 (ip), vehicle: saline with Tween-80 91 % of control
